We go through 24 compounds from patent US9365583B2, “Substituted pyrazoles and uses thereof” (Genentech, Inc., priority 2013, dated 2016).

This assay concerns the target T1, N-terminally GST-tagged DLK (catalytic domain amino acid 1-520) (Homo sapiens, UniProt Q12852).
T1 construct: N-terminally GST-tagged DLK (catalytic domain amino acid 1-520); purchased Carna Bioscience
T1 sequence (Q12852 1-520): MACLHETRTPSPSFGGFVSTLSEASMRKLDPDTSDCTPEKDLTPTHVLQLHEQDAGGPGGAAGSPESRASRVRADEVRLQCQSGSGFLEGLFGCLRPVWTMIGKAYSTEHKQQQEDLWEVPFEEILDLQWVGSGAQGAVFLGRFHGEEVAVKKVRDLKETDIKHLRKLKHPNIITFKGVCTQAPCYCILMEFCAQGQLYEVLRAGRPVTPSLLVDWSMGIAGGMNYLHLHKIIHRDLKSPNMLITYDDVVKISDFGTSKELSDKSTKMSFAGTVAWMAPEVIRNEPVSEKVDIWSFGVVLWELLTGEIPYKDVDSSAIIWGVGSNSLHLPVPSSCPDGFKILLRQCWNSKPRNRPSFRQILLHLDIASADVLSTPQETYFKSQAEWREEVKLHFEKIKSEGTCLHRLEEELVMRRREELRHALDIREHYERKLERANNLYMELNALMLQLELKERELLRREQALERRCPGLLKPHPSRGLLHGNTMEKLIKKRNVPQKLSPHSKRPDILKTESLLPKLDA
Description: DLK TR-FRET inhibition assay. The settings on record: 5 nM GST-DLK, 40 nM HIS-MKK4 K131M substrate, 30 μM ATP, 60 minutes at ambient temperature. It counts as biochemical. In outline:
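Phosphorylated MKK4 was quantified by TR-FRET (Eu-labelled anti-phospho-MKK4, D2 anti-HIS; 3 h, 665 and 615 nm emission) after EDTA quench. Reactions held 5 nM GST-tagged DLK catalytic domain (1-520), 40 nM HIS-MKK4 K131M substrate, 30 μM ATP and compound (3-fold series from 20 uM), 60 min, room temperature, pH 7.5.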
On the technique in general: TR-FRET usually uses a lanthanide donor and a delayed reading to cut background.
For `COCCN1CC2(C[C@@H]3[C@H](C2)[C@H]3c2cc(-c3cnc(N)c(C(F)(F)F)c3)nn2C(C)C)C1` [compound 141, 5-(1-isopropyl-5-((1′R,5′S,6′r)-1-(2-methoxyethyl)spiro[azetidine-3,3′-bicyclo[3.1.0]hexan]-6′-yl)-1H-pyrazol-3-yl)-3-(trifluoromethyl)pyridin-2-amine], the affinity corresponds to a Ki of 8.52 nM. The same measure for `CC(C)n1nc(-c2cnc(N)c(OC(F)(F)F)c2)cc1[C@H]1[C@@H]2C[C@H](N3CCOCC3)C[C@@H]21` [compound 69, 5-(1-isopropyl-5-((1R,3r,5S,6r)-3-morpholinobicyclo[3.1.0]hexan-6-yl)-1H-pyrazol-3-yl)-3-(trifluoromethoxy)pyridin-2-amine]: 2.97 nM. In the case of `CC(C)n1nc(-c2cnc(N)c(C(F)(F)F)c2)cc1[C@H]1[C@@H]2C[C@H](N3CCOC[C@H]3C)C[C@@H]21` [compound 45, 5-(1-isopropyl-5-((1R,3r,5S,6R)-3-((R)-3-methylmorpholino)bicyclo[3.1.0]hexan-6-yl)-1H-pyrazol-3-yl)-3-(trifluoromethyl) pyridin-2-amine] it was 3.3 nM; in that of `CC(C)n1nc(-c2cnc(N)c(C(F)(F)F)c2)cc1[C@H]1[C@@H]2CC3(C[C@@H]21)CN(C)C(=O)CO3` (stereo partly drawn) [compound 229, (1R,5S,6r)-6-(3-(6-amino-5-(tri-fluoromethyl)pyridin-3-yl)-1-isopropyl-1H-pyrazol-5-yl)-4′-methylspiro[bicyclo[3.1.0]hexane-3,2′-morpholin]-5′-one], 3.9 nM.

The compound `CC(C)n1nc(-c2cnc(N)c(OC(F)F)c2)cc1[C@H]1[C@@H]2C[C@@H](N3CCN4CCCC4C3)C[C@@H]21` (single isomer, unassigned) [compound 258] displayed a Ki of 0.9 nM. With `CC(C)n1nc(-c2cnc(N)c(C(F)(F)F)c2)cc1[C@H]1[C@@H]2CC(N3CC4COCC4C3)C[C@@H]21` (single isomer, unassigned) [compound 270], the inhibition constant Ki stood at 2.8 nM. The same measure for `CC(C)n1nc(-c2cnc(N)c(OC(F)F)c2)cc1[C@H]1[C@@H]2C[C@H](O)C[C@@H]21` [compound 4, (1R,3r,5S,6r)-6-(3-(6-amino-5-(difluoromethoxy)pyridin-3-yl)-1-isopropyl-1H-pyrazol-5-yl) bicyclo[3.1.0]hexan-3-ol]: 4.51 nM.

`CC(C)n1nc(-c2cnc(N)c(OC(F)(F)F)c2)cc1[C@H]1[C@@H]2C[C@@H](N3C[C@@H]4C[C@H]3CO4)C[C@@H]21` [compound 164, 5-(5-((1R,3s,5S,6S)-3-((1S,4S)-2-oxa-5-azabicyclo[2.2.1]heptan-5-yl)bicyclo[3.1.0]hexan-6-yl)-1-isopropyl-1H-pyrazol-3-yl)-3-(trifluoromethoxy)pyridin-2-amine] displayed a Ki of 3.3 nM. The Ki values of the last two compounds are within 1.5-fold of each other. In the case of `CC(C)n1nc(-c2cnc(N)c(OC(F)(F)F)c2)cc1[C@H]1[C@@H]2C[C@H](N3CCOC[C@@H]3C)C[C@@H]21` [compound 97, 5-(1-isopropyl-5-((1R,3r,5S,6S)-3-((S)-3-methylmorpholino)bicyclo[3.1.0]hexan-6-yl)-1H-pyrazol-3-yl)-3-(trifluoromethoxy) pyridin-2-amine] it was 4.12 nM; in that of `CC(C)n1nc(-c2cnc(N)c(C(F)(F)F)c2)cc1[C@H]1[C@@H]2C[C@H](N3CCO[C@@H](C)C3)C[C@@H]21` [compound 108, 5-(1-isopropyl-5-((1R,3r,5S,6S)-3-((S)-2-methylmorpholino)bicyclo[3.1.0]hexan-6-yl)-1H-pyrazol-3-yl)-3-(trifluoromethyl) pyridin-2-amine], 1.6 nM. Take `Nc1ncc(-c2cc([C@H]3[C@@H]4C[C@H](N5CCOCC5)C[C@@H]43)n(C3CCC3)n2)cc1OC(F)F` [compound 134, 5-(1-cyclobutyl-5-((1R,3r,5S,6r)-3-morpholinobicyclo[3.1.0]hexan-6-yl)-1H-pyrazol-3-yl)-3-(difluoromethoxy)pyridin-2-amine]: the inhibition constant Ki was 1.58 nM. The Ki values of the last two compounds are within 1.5-fold of each other.

In the case of `CC(C)n1nc(-c2cnc(N)c(C(F)(F)F)c2)cc1[C@H]1[C@@H]2C[C@@H](N3CC4(COC4)C3)C[C@@H]21` [compound 51, 5-(5-((1R,3s,5S,6r)-3-(2-oxa-6-azaspiro[3.3]heptan-6-yl)bicyclo [3.1.0]hexan-6-yl)-1-isopropyl-1H-pyrazol-3-yl)-3-(trifluoro-methyl)pyridin-2-amine], the Ki amounted to 3.55 nM. In turn, `CC(C)n1nc(-c2cnc(N)c(C(F)(F)F)c2)cc1[C@H]1[C@@H]2C[C@H](N3CCN(C4COC4)CC3)C[C@@H]21` [compound 116, 5-(1-isopropyl-5-((1R,3r,5S,6r)-3-(4-(oxetan-3-yl)piperazin-1-yl)bicyclo[3.1.0]hexan-6-yl)-1H-pyrazol-3-yl)-3-(trifluoromethyl) pyridin-2-amine] had an inhibition constant (Ki) of 7.79 nM. On to `CC(C)n1nc(-c2cnc(N)c(C(F)(F)F)c2)cc1[C@H]1[C@@H]2C[C@@H](N3CCN[C@@H](C)C3)C[C@@H]21` [compound 235, 5-(1-isopropyl-5-((1R,3s,5S,6S)-3-((S)-3-methylpiperazin-1-yl)bicyclo[3.1.0]hexan-6-yl)-1H-pyrazol-3-yl)-3-(trifluoromethyl) pyridin-2-amine], for which the affinity, expressed as Ki, was 3.8 nM.

For `CC(C)n1nc(-c2cnc(N)c(OC(F)F)c2)cc1[C@H]1[C@@H]2CC3(COC3)C[C@@H]21` [compound 170, 3-(difluoromethoxy)-5-(1-isopropyl-5-((1R,5S,6r)-spiro[bicyclo [3.1.0]hexane-3,3′-oxetan]-6-yl)-1H-pyrazol-3-yl)pyridin-2-amine], the inhibitory constant (Ki) was found to be 4.5 nM.

`CC(C)n1nc(-c2cnc(N)c(OC(F)(F)F)c2)cc1[C@H]1[C@@H]2C[C@@H](N3CCCN(C)CC3)C[C@@H]21` [compound 203, 5-(1-isopropyl-5-((1R,3s,5S,6r)-3-(4-methyl-1,4-diazepan-1-yl)bicyclo[3.1.0]hexan-6-yl)-1H-pyrazol-3-yl)-3-(trifluoromethoxy) pyridin-2-amine] registered a Ki of 0.9 nM. In the case of `COC1CN([C@H]2C[C@@H]3[C@H](C2)[C@H]3c2cc(-c3cnc(N)c(OC(F)(F)F)c3)nn2C(C)C)C1` [compound 39, 5-(1-isopropyl-5-((1R,3r,5S,6r)-3-(3-methoxyazetidin-1-yl)bicyclo[3.1.0]hexan-6-yl)-1H-pyrazol-3-yl)-3-(trifluoromethoxy) pyridin-2-amine] it was 2.06 nM; in that of `CC(C)n1nc(-c2cnc(N)c(OC(F)F)c2)cc1[C@H]1[C@@H]2C[C@H](F)C[C@@H]21` [compound 213, 3-(difluoromethoxy)-5-(5-((1R,3r,5S,6r)-3-fluorobicyclo[3.1.0]hexan-6-yl)-1-isopropyl-1H-pyrazol-3-yl)pyridin-2-amine], 5.1 nM. `Nc1ncc(-c2cc([C@H]3[C@@H]4C[C@H](N5CCCOCC5)C[C@@H]43)n(CC(F)F)n2)cc1OC(F)F` [compound 233, 5-(5-((1R,3r,5S,6r)-3-(1,4-oxazepan-4-yl)bicyclo[3.1.0]hexan-6-yl)-1-(2,2-difluoroethyl)-1H-pyrazol-3-yl)-3-(difluoromethoxy) pyridin-2-amine] had a Ki of 1.8 nM.

`CC(C)n1nc(-c2cnc(N)c(OC(F)(F)F)c2)cc1[C@H]1[C@@H]2C[C@H](N3CCN(C)CC3)C[C@@H]21` [compound 64, 5-(1-isopropyl-5-((1R,3r,5S,6r)-3-(4-methylpiperazin-1-yl)bicyclo [3.1.0]hexan-6-yl)-1H-pyrazol-3-yl)-3-(trifluoromethoxy) pyridin-2-amine] returned an inhibition constant Ki of 0.763 nM. Compared with the last compound, the Ki is about 2.4-fold lower.

In turn, `CC(C)n1nc(-c2cnc(N)c(C(F)(F)F)c2)cc1[C@H]1[C@@H]2C[C@@H](N3CCN4CCCC4C3)C[C@@H]21` (single isomer, unassigned) [compound 263] returned an inhibition constant (Ki) of 1 nM. The Ki values of the last two compounds are within 1.5-fold of each other. In the case of `CC(C)n1nc(-c2cnc(N)c(C(F)(F)F)c2)cc1[C@H]1[C@@H]2C[C@H](n3ccnc3)C[C@@H]21` [compound 115, 5-(5-((1R,3r,5S,6r)-3-(1H-imidazol-1-yl)bicyclo[3.1.0]hexan-6-yl)-1-isopropyl-1H-pyrazol-3-yl)-3-(trifluoromethyl)pyridin-2-amine] it was 9.19 nM; in that of `CC(C)n1nc(-c2cnc(N)c(C(F)(F)F)c2)cc1[C@H]1[C@@H]2C[C@@H](N3CC4(CCCO4)C3)C[C@@H]21` [compound 222, 5-(5-((1R,3s,5S,6r)-3-(5-oxa-2-azaspiro[3.4]octan-2-yl)bicyclo [3.1.0]hexan-6-yl)-1-isopropyl-1H-pyrazol-3-yl)-3-(trifluoromethyl) pyridin-2-amine], 2.7 nM. In the case of `COC1CCN([C@@H]2C[C@@H]3[C@H](C2)[C@H]3c2cc(-c3cnc(N)c(C(F)(F)F)c3)nn2C(C)C)CC1` [compound 249, 5-(1-isopropyl-5-((1R,3s,5S,6r)-3-(4-methoxypiperidin-1-yl)bicyclo[3.1.0]hexan-6-yl)-1H-pyrazol-3-yl)-3-(trifluoromethyl) pyridin-2-amine] it was 2.6 nM.

In general, Ki refers to the equilibrium dissociation constant of an inhibitor or competing ligand from its target. Low values mean higher affinity, high ones lower affinity.
